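Each compound was tested at five concentrations against cells in 96-well plates for 48 hours. Abbreviation: GI50, concentration required for 50% inhibition of growth. TGI: total growth inhibition.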
Columns and labels:
Test in all cases: DTP human tumour cell line panel, 48 h
[1] = tested on: DU-145 prostate
[2] = tested on: NCI/ADR-RES ovarian
[3] = tested on: K-562 leukemia
[4] = tested on: CCRF-CEM leukemia
[5] = tested on: IGROV1 ovarian
[6] = tested on: UO-31 renal
[7] = tested on: SR leukemia
[8] = tested on: TK-10 renal
[9] = tested on: HOP-92 NSCLC
[10] = tested on: SNB-19 CNS
[11] = tested on: SF-539 CNS
[12] = tested on: NCI-H460 lung
[13] = tested on: T-47D breast
[14] = tested on: MOLT-4 leukemia
[15] = tested on: MDA-MB-231 breast
[16] = tested on: HCC-2998 colon
[17] = tested on: SK-MEL-2 melanoma
[18] = tested on: HS 578T breast
[19] = tested on: HT29 colon
[20] = tested on: NCI-H522 lung
[21] = tested on: SK-MEL-5 melanoma
[22] = tested on: SW-620 colon
[23] = tested on: SN12C renal
[24] = tested on: MDA-N
[25] = tested on: HCT-116 colon
[26] = tested on: LOX IMVI melanoma
[27] = tested on: HL-60(TB) leukemia
[28] = tested on: MCF7 breast
[29] = tested on: SNB-75 CNS
[30] = tested on: KM12 colon
[31] = tested on: CAKI-1 renal
[32] = tested on: SF-295 CNS
[33] = tested on: SF-268 CNS
[34] = tested on: OVCAR-5 ovarian
[35] = tested on: HOP-62 NSCLC
[36] = tested on: SK-MEL-28 melanoma
[37] = tested on: M14 melanoma
[38] = tested on: BT-549 breast
[39] = tested on: OVCAR-8 ovarian
[40] = tested on: MDA-MB-435
[41] = tested on: RXF 393 renal
[42] = tested on: UACC-257 melanoma
[43] = tested on: HCT-15 colon
[44] = tested on: COLO 205 colon
[45] = tested on: RPMI-8226 leukemia
[46] = tested on: SK-OV-3 ovarian
[47] = tested on: UACC-62 melanoma
[48] = tested on: U251 CNS
[49] = tested on: MALME-3M melanoma
[50] = tested on: A498 renal
[51] = tested on: OVCAR-3 ovarian
[52] = tested on: ACHN renal
[53] = tested on: OVCAR-4 ovarian
[54] = tested on: NCI-H23 lung
[55] = tested on: NCI-H226 lung
[56] = tested on: A549 NSCLC
[57] = tested on: PC-3 prostate
[58] = tested on: 786-0 renal

For `COc1ccc(C2=C(c3ccc(OC)c(OC)c3)C(=O)N3CCCC3C2)cc1` (stereo unspecified), the GI50 [1] was 30.8 µM, the TGI [1] was > 86.8 µM and the GI50 [2] was 39.6 µM. The TGI [2] was > 100 µM, the GI50 [3] was 7.32 µM and the TGI [3] was > 100 µM. For the same compound, the GI50 [4] was 8.03 µM, the TGI [4] was > 100 µM and the GI50 [5] was 13.3 µM. For the same compound, the TGI [5] was > 100 µM, the GI50 [6] was 22.8 µM and the TGI [6] was > 100 µM. For the same compound, the GI50 [7] was 3.02 µM, the TGI [7] was 12.8 µM and the GI50 [8] was 76.2 µM. The TGI [8] was > 100 µM, the GI50 [9] was 41.3 µM and the TGI [9] was > 100 µM. The GI50 [10] was 63.8 µM, the TGI [10] was > 100 µM and the GI50 [11] was 12 µM. The TGI [11] was > 100 µM, the GI50 [12] was 4.46 µM and the TGI [12] was 23.3 µM. For the same compound, the GI50 [13] was 42.3 µM, the TGI [13] was > 100 µM and the GI50 [14] was 2.72 µM. For the same compound, the TGI [14] was 19.6 µM, the GI50 [15] was 22 µM and the TGI [15] was > 100 µM. For the same compound, the GI50 [16] was 53.6 µM, the TGI [16] was > 100 µM and the GI50 [17] was > 71.1 µM. For the same compound, the TGI [17] was > 100 µM, the GI50 [18] was 6.71 µM and the TGI [18] was > 78 µM. For the same compound, the GI50 [19] was 13.6 µM, the TGI [19] was > 100 µM and the GI50 [20] was 15.7 µM. For the same compound, the TGI [20] was > 100 µM, the GI50 [21] was 9.03 µM and the TGI [21] was > 72.6 µM. For the same compound, the GI50 [22] was 32.5 µM, the TGI [22] was > 100 µM and the GI50 [23] was 45.7 µM. The TGI [23] was > 100 µM, the GI50 [24] was 44.6 µM and the TGI [24] was > 100 µM. The GI50 [25] was 9.64 µM, the TGI [25] was > 100 µM and the GI50 [26] was 10.4 µM. The TGI [26] was > 52.7 µM, the GI50 [27] was 4.26 µM and the TGI [27] was 22.7 µM. The GI50 [28] was 31.8 µM, the TGI [28] was > 100 µM and the GI50 [29] was 16.6 µM. For the same compound, the TGI [29] was > 72.9 µM, the GI50 [30] was 15.7 µM and the TGI [30] was > 100 µM. The GI50 [31] was 39.4 µM, the TGI [31] was > 100 µM and the GI50 [32] was 29.2 µM. The TGI [32] was > 100 µM, the GI50 [33] was 9.44 µM and the TGI [33] was > 100 µM. For the same compound, the GI50 [34] was > 100 µM, the TGI [34] was > 100 µM and the GI50 [35] was 14.7 µM. For the same compound, the TGI [35] was > 100 µM, the GI50 [36] was 73.3 µM and the TGI [36] was > 100 µM. For the same compound, the GI50 [37] was 35.9 µM, the TGI [37] was > 100 µM and the GI50 [38] was > 71.2 µM. For the same compound, the TGI [38] was > 100 µM, the GI50 [39] was 21.7 µM and the TGI [39] was > 100 µM. For the same compound, the GI50 [40] was 25.7 µM, the TGI [40] was > 100 µM and the GI50 [41] was 11.5 µM. For the same compound, the TGI [41] was > 38.2 µM, the GI50 [42] was 62.3 µM and the TGI [42] was > 100 µM. The GI50 [43] was 5.18 µM, the TGI [43] was > 100 µM and the GI50 [44] was 8.41 µM. For the same compound, the TGI [44] was > 100 µM, the GI50 [45] was 8.47 µM and the TGI [45] was 62.6 µM. For the same compound, the GI50 [46] was 30.5 µM, the TGI [46] was > 100 µM and the GI50 [47] was 13.2 µM. For the same compound, the TGI [47] was > 100 µM, the GI50 [48] was 7.47 µM and the TGI [48] was > 100 µM. For the same compound, the GI50 [49] was > 71.4 µM, the TGI [49] was > 100 µM and the GI50 [50] was 34.1 µM. The TGI [50] was > 100 µM, the GI50 [51] was 23.9 µM and the TGI [51] was > 93.8 µM. For the same compound, the GI50 [52] was 34 µM, the TGI [52] was > 100 µM and the GI50 [53] was 20.6 µM. For the same compound, the TGI [53] was > 100 µM, the GI50 [54] was > 90.4 µM and the TGI [54] was > 100 µM. The GI50 [55] was 43.9 µM, the TGI [55] was > 100 µM and the GI50 [56] was 15.1 µM. The TGI [56] was > 100 µM, the GI50 [57] was 9.73 µM and the TGI [57] was > 100 µM. The GI50 [58] was 27.6 µM and the TGI [58] was > 100 µM.
